Patent US10273241B2 (President and Fellows of Harvard College, priority 2013, dated 2019)
Where two headings read alike, the source gives them in different places.

Assays:
[1] = test system: MOLM-14; test: Cell growth assay, MOLM-14 AML cell line; format: cell-based, human
Protocol: (§1) For all other cell lines, compounds were serially diluted in medium and dispensed in triplicate in 96-well plates (0.1% DMSO final for assay) followed by the addition of exponentially growing cells at densities ranging from 5,000 to 30,000 cells/well. Cells were also seeded into 2 additional control wells containing vehicle (0.1% DMSO). […] To determine the estimated cell number in each well, cells that were counted in the control well were diluted 3-fold for an 8-point dilution series, and transferred to 384-well plates in duplicate, 20 μL per well. Cells in all other wells were diluted 4-fold and transferred to 384-well plates in duplicate, 20 μL per well. 20 μL of CellTiter-Glo (Promega) was subsequently added to all wells and luminescence was detected using a SPECTRAmax M3. The control well dilution series was fit to a linear regression and used as a standard for calculating the estimated cell number for each well. For days 7 and 10, total estimated cell number represents the split-adjusted theoretical cell number.

[2] = test system: MV4;11; test: Cell growth assay, MV4;11 AML cell line; format: cell-based, human
Protocol: as §1

[3] = Homo sapiens, MOLM-14, 168 h, day 7, printed as symbol, read-out: MOL M14 GI50 day 7
[4] = Homo sapiens, MV4-11, 168 h, day 7, printed as symbol, read-out: MV4;11 GI50 day 7
[5] = Homo sapiens, MOLM-14, 240 h, day 10, cells passaged, fresh compound added on days 3 and 7, read-out: MOL M14 G150 day 10
[6] = Homo sapiens, MV4-11, 240 h, day 10, cells passaged, fresh compound added on days 3 and 7, read-out: MV 4;11 GI50 day 10
[7] = day 10, cells passaged, fresh compound added on days 3 and 7, read-out: MOL M14 G150 day 10
[8] = day 10, cells passaged, fresh compound added on days 3 and 7, read-out: MV 4;11 GI50 day 10

SMILES | GI50 [1, 5] [nM] | GI50 [2, 6] [nM] | also measured
CN(C)[C@H]1CCC2=CC3=CC[C@]4(C)[C@@H](C(=O)Nc5cccnc5)CC[C@H]4[C@@]34CCC2(C1)O4 [50B, β-dimethylamine amidepyridine] | – | – | GI50 [1, 3]: > 1000 nM; GI50 [2, 4]: > 1000 nM
CN(CC(F)F)[C@H]1CCC2=CC3=CC[C@]4(C)C(c5ccc6ccncc6c5)CC[C@H]4[C@@]34CC[C@]2(C1)O4 (stereo partly drawn) [30B, β-2,2-difluoroethylmethylamine] | 55 | 20 | –
C[C@]12CC=C3C=C4CC[C@@H](O)CC45CC[C@]3(O5)[C@@H]1CC[C@@H]2c1ccc2ccncc2c1 [17A, α-alcohol] | – | – | GI50 [1, 7]: 6 nM; GI50 [2, 8]: 1 nM
CN[C@H]1CCC2=CC3=CC[C@]4(C)C(c5ccc6ccncc6c5)CC[C@H]4C34CC[C@]2(C1)O4 (stereo partly drawn) [24B, β-monomethylamine] | 50 | 20 | –
C[C@]12CC=C3C=C4CC[C@@H](N5CC(O)C5)C[C@]45CCC3(O5)[C@@H]1CC[C@@H]2c1ccc2ccncc2c1 [70A, α-hydroxyazetidine] | 12 | 7 | –
CC(C)N[C@H]1CCC2=CC3=CC[C@]4(C)[C@@H](c5ccc6ccncc6c5)CC[C@H]4[C@@]34CC[C@]2(C1)O4 [32B, β-isopropylamine] | 55 | 27 | –
C[C@]12CC=C3C=C4CC[C@H](NC5CC5)C[C@]45CCC3(O5)[C@@H]1CCC2c1ccc2ccncc2c1 (stereo partly drawn) [39B, β-cyclopropylamine] | 30 | 17 | –
C[C@]12CC=C3C=C4CC[C@H](N5CCC(F)(F)C5)C[C@]45CC[C@]3(O5)[C@@H]1CC[C@@H]2c1ccc2ccncc2c1 [37B, β-3,3-difluoropyrrolidine] | 200 | 65 | –
CNC(=O)O[C@@H]1CCC2=CC3=CC[C@]4(C)[C@@H](c5ccc6ccncc6c5)CC[C@H]4[C@@]34CCC2(C1)O4 [68A, α-monomethylcarbamate] | – | – | GI50 [1, 7]: 150 nM; GI50 [2, 8]: 120 nM
CN(C)[C@H]1CCC2=CC3=CC[C@]4(C)C(c5ccc6cnncc6c5)=CC[C@H]4C34CC[C@]2(C1)O4 [55B, β-dimethylamine 17,18-unsaturated phthalazine] | – | – | GI50 [1, 3]: > 1000 nM; GI50 [2, 4]: > 1000 nM
CN(C1CC1)[C@H]1CCC2=CC3=CC[C@]4(C)C(c5ccc6ccncc6c5)CC[C@H]4C34CC[C@]2(C1)O4 (stereo partly drawn) [40B, β-Cyclopropylmethylamine] | 25 | 16 | –
CN(C)[C@H]1CCC2=CC3=CC[C@]4(C)C(c5ccc6cn[nH]c6c5)=CC[C@H]4C34CC[C@]2(C1)O4 [58B, β-dimethylamine 17,18-unsaturated 6-indazole] | – | – | GI50 [1, 3]: > 1000 nM; GI50 [2, 4]: > 1000 nM
CN(CCF)[C@H]1CCC2=CC3=CC[C@]4(C)C(c5ccc6ccncc6c5)CC[C@H]4[C@@]34CC[C@]2(C1)O4 (stereo partly drawn) [29B, β-2-fluoroethylmethylamine] | 14 | 7 | –
C[C@]12CC=C3C=C4CC[C@H](N5CC[C@H](F)C5)C[C@]45CC[C@]3(O5)[C@@H]1CC[C@@H]2c1ccc2ccncc2c1 [36B, β-(S)-3-fluoropyrrolidine] | 95 | 19 | –
C[C@]12CC=C3C=C4CC[C@H](N5[C@H]6CC[C@@H]5CC6)C[C@]45CC[C@]3(O5)[C@@H]1CC[C@@H]2c1ccc2ccncc2c1 [31B, β-7-Azabicyclo[2.2.1]heptane] | 100 | 75 | –
COCCN(C)[C@H]1CCC2=CC3=CC[C@]4(C)C(c5ccc6ccncc6c5)CC[C@H]4[C@@]34CC[C@]2(C1)O4 (stereo partly drawn) [27B, β-2-methoxyethylmethylamine] | 10 | 7 | –
C[C@]12CC=C3C=C4CC[C@H](N)CC45CC[C@]3(O5)[C@@H]1CC[C@@H]2c1ccc2ccncc2c1 [62B, β-primaryamine] | 70 | 20 | –
CO[C@@H]1CCC2=CC3=CC[C@]4(C)[C@@H](c5ccc6ccncc6c5)CC[C@H]4[C@@]34CCC2(C1)O4 [64A, α-methylether] | – | – | GI50 [1, 7]: 45 nM; GI50 [2, 8]: 15 nM
